Tested on: Yop
Details: for percentage activity of Yop relative to control: 1 μM compound, phosphatase 0.1 nM, pNPP, average of three enzyme preparations ± S.D.

Cn1nc2c(nc1=O)c(=O)n(C)c(=O)n2C [Compound 3, 2,8-dihydro-2,6,8-trimethyl-pyrimido[5,4-e]-1,2,4-triazine-3,5,7(6H)-trione]
inhibition of Yop (1 μM): ~90% | percentage activity of Yop relative to control: 10 ± 1.0% | PTP inhibition of Yop at neutral pH (neutral pH, results not shown): continues to behave as a PTP inhibitor

Cn1nc2c(nc1=O)n(C)c(=O)n2C [Compound 4, 2,5,7-trimethyl-2,7-dihydro-5H-imidazo[4,5-e]-1,2,4-triazine-3,6-dione]
percentage activity of Yop relative to control: 95 ± 4.0%

[Na+].[Na+].[Na+].[O]=[V]([O-])([O-])[O-] [Na3VO4, sodium orthovanadate, reference compound]
percentage activity of Yop relative to control: 14 ± 1.0%

From patent publication US7199121B2, “Protein tyrosine phosphatase inhibitor” (Institute of Molecular and Cell Biology, priority 2000, dated 2007)
